In the supplement of paper PMC10307832:

Experiments:
Experiment in all cases: relative viability (nuclei count vs DMSO), 5 days (fraction); higher = more cells survive
Lapatinib + OSI-027 = compound: CS(=O)(=O)CCNCc1ccc(-c2ccc3ncnc(Nc4ccc(OCc5cccc(F)c5)c(Cl)c4)c3c2)o1 [Lapatinib] + COc1cccc2cc(-c3nc([C@H]4CC[C@H](C(=O)O)CC4)n4ncnc(N)c34)[nH]c12 [OSI-027] (partner 0.5 µM)
How it was run: (§1)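 Lung cancer cell lines, seeded in 1536-well plates, were treated the following day by pin tool with a single drug or with five library-drug doses (not always all listed) in √10 steps on top of a fixed anchor-drug dose. Cells were fixed and nuclei stained in one step after 5 days, and nuclei were counted. Relative viability is the nuclei count for treated wells divided by that for vehicle wells, reported as medians of duplicate plates.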

Lapatinib + Olaparib = compound: CS(=O)(=O)CCNCc1ccc(-c2ccc3ncnc(Nc4ccc(OCc5cccc(F)c5)c(Cl)c4)c3c2)o1 [Lapatinib] + O=C(c1cc(Cc2n[nH]c(=O)c3ccccc23)ccc1F)N1CCN(C(=O)C2CC2)CC1 [Olaparib] (partner 8 µM)
How it was run: as §1

Lapatinib + Alpelisib = compound: CS(=O)(=O)CCNCc1ccc(-c2ccc3ncnc(Nc4ccc(OCc5cccc(F)c5)c(Cl)c4)c3c2)o1 [Lapatinib] + Cc1nc(NC(=O)N2CCC[C@H]2C(N)=O)sc1-c1ccnc(C(C)(C)C(F)(F)F)c1 [Alpelisib] (partner 2 µM)
How it was run: as §1

Lapatinib + Trametinib = compound: CS(=O)(=O)CCNCc1ccc(-c2ccc3ncnc(Nc4ccc(OCc5cccc(F)c5)c(Cl)c4)c3c2)o1 [Lapatinib] + CC(=O)Nc1cccc(-n2c(=O)n(C3CC3)c(=O)c3c(Nc4ccc(I)cc4F)n(C)c(=O)c(C)c32)c1 [Trametinib] (partner 0.02 µM)
How it was run: as §1

Cell Line | relative viability (Lapatinib + OSI-027; first compound 0.02 µM) | relative viability (Lapatinib + OSI-027; first compound 0.06325 µM) | relative viability (Lapatinib + OSI-027; first compound 0.2 µM) | relative viability (Lapatinib + OSI-027; first compound 0.6325 µM) | relative viability (Lapatinib + OSI-027; first compound 2 µM) | relative viability (Lapatinib + Olaparib; first compound 0.02 µM) | relative viability (Lapatinib + Olaparib; first compound 0.06325 µM) | relative viability (Lapatinib + Olaparib; first compound 0.2 µM) | relative viability (Lapatinib + Olaparib; first compound 0.6325 µM) | relative viability (Lapatinib + Olaparib; first compound 2 µM) | relative viability (Lapatinib + Alpelisib; first compound 0.06325 µM) | relative viability (Lapatinib + Alpelisib; first compound 0.2 µM) | relative viability (Lapatinib + Alpelisib; first compound 0.6325 µM) | relative viability (Lapatinib + Alpelisib; first compound 2 µM) | relative viability (Lapatinib + Trametinib; first compound 0.02 µM) | relative viability (Lapatinib + Trametinib; first compound 0.06325 µM) | relative viability (Lapatinib + Trametinib; first compound 0.2 µM) | relative viability (Lapatinib + Trametinib; first compound 0.6325 µM) | relative viability (Lapatinib + Trametinib; first compound 2 µM) | relative viability (Lapatinib + Alpelisib; first compound 0.02 µM)
SK-LU-1 | 0.292 | 0.219 | 0.286 | 0.353 | 0.324 | 0.298 | 0.449 | 0.565 | 0.555 | 0.433 | 0.953 | 0.99 | 1.1 | 0.977 | 0.377 | 0.43 | 0.439 | 0.557 | 0.507 | 
NCI-H2228 | 0.395 | 0.36 | 0.482 | 0.568 | 0.478 | 0.562 | 0.537 | 0.728 | 0.482 | 0.436 | 0.688 | 0.811 | 0.907 | 0.59 | 0.112 | 0.441 | 0.609 | 0.583 | 0.27 | 0.675
NCI-H358 | 0.567 | 0.285 | 0.439 | 0.285 | 0.215 | 0.535 | 0.476 | 0.385 | 0.377 | 0.205 |  | 0.574 | 0.414 | 0.336 | 0.135 | 0.108 | 0.122 | 0.123 | 0.121 | 0.741
EKVX | 0.594 | 0.502 | 0.575 | 0.58 | 0.325 |  | 0.694 | 0.77 | 0.602 | 0.337 | 0.675 | 0.845 | 0.575 | 0.212 |  | 0.29 | 0.315 | 0.249 | 0.147 | 0.869
HCC-78 |  | 0.324 | 0.315 | 0.381 | 0.344 |  | 0.519 | 0.926 | 0.814 | 0.846 | 0.277 | 0.305 | 0.26 | 0.15 |  | 0.509 | 0.668 | 0.681 | 0.675 | 
NCI-H2085 |  | 0.536 | 0.61 | 0.584 | 0.269 | 0.744 | 0.795 | 0.8 | 0.711 | 0.581 | 0.845 | 0.932 | 1 | 0.694 | 0.404 | 0.56 | 0.511 | 0.559 | 0.452 | 0.869
NCI-H23 |  |  | 0.51 | 0.639 | 0.504 |  |  | 0.266 | 0.296 | 0.2 |  | 0.737 | 0.719 | 0.521 |  |  | 0.368 | 0.467 | 0.398 | 
NCI-H647 | 0.635 | 0.488 | 0.527 | 0.689 | 0.642 | 0.536 | 0.412 | 0.506 | 0.523 | 0.489 | 0.779 | 1.06 | 1.14 | 1.01 | 0.394 | 0.42 | 0.45 | 0.641 | 0.224 | 1.01
NCI-H1395 | 0.535 | 0.597 | 0.612 | 0.636 | 0.627 |  | 0.455 | 0.459 | 0.522 | 0.415 | 0.93 | 1.18 | 0.978 | 1.03 |  | 0.956 | 1.07 | 1.06 | 1.03 | 
COR-L 105 | 0.638 | 0.362 | 0.449 | 0.413 | 0.269 | 0.603 | 0.657 | 0.647 | 0.669 | 0.406 | 0.765 | 1.03 | 0.804 | 0.294 | 0.433 | 0.419 | 0.402 | 0.363 | 0.393 | 0.872
NCI-H1651 | 0.648 | 0.454 | 0.622 | 0.648 | 0.519 | 0.193 | 0.183 | 0.181 | 0.197 | 0.178 | 0.827 | 0.897 | 0.828 | 0.932 | 0.856 | 0.809 | 0.827 | 0.806 | 0.811 | 0.919
PC-14 | 0.464 | 0.743 | 0.824 | 0.794 | 0.152 | 0.209 | 0.286 | 0.291 | 0.263 | 0.217 | 0.915 | 0.883 | 0.864 | 0.783 | 0.768 | 0.674 | 0.796 | 0.827 | 0.0695 | 0.823
